Source: the supplement of paper PMC10307832

What was measured:
Assay in all cases: relative viability (nuclei count vs DMSO), 5 days (fraction); higher = more cells survive
Venetoclax + Bortezomib = compound: CC1(C)CCC(CN2CCN(c3ccc(C(=O)NS(=O)(=O)c4ccc(NCC5CCOCC5)c([N+](=O)[O-])c4)c(Oc4cnc5[nH]ccc5c4)c3)CC2)=C(c2ccc(Cl)cc2)C1 [Venetoclax] + CC(C)C[C@H](NC(=O)[C@H](Cc1ccccc1)NC(=O)c1cnccn1)B(O)O [Bortezomib] (partner 0.002 µM)
Method in brief: (§1)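 Each reported value is a median over duplicate plates. It expresses relative viability: treated-well nuclei count divided by vehicle-well nuclei count. Lung cancer cell lines in 1536-well plates were dosed by pin tool a day after seeding, alone with one drug or with a fixed anchor-drug dose plus five library-drug doses (not always all listed) in √10 steps, and nuclei were counted after 5 days.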

Venetoclax + Olaparib = compound: CC1(C)CCC(CN2CCN(c3ccc(C(=O)NS(=O)(=O)c4ccc(NCC5CCOCC5)c([N+](=O)[O-])c4)c(Oc4cnc5[nH]ccc5c4)c3)CC2)=C(c2ccc(Cl)cc2)C1 [Venetoclax] + O=C(c1cc(Cc2n[nH]c(=O)c3ccccc23)ccc1F)N1CCN(C(=O)C2CC2)CC1 [Olaparib] (partner 8 µM)
Method in brief: as §1

Venetoclax + Lapatinib = compound: CC1(C)CCC(CN2CCN(c3ccc(C(=O)NS(=O)(=O)c4ccc(NCC5CCOCC5)c([N+](=O)[O-])c4)c(Oc4cnc5[nH]ccc5c4)c3)CC2)=C(c2ccc(Cl)cc2)C1 [Venetoclax] + CS(=O)(=O)CCNCc1ccc(-c2ccc3ncnc(Nc4ccc(OCc5cccc(F)c5)c(Cl)c4)c3c2)o1 [Lapatinib] (partner 2 µM)
Method in brief: as §1

Venetoclax + Tozasertib = compound: CC1(C)CCC(CN2CCN(c3ccc(C(=O)NS(=O)(=O)c4ccc(NCC5CCOCC5)c([N+](=O)[O-])c4)c(Oc4cnc5[nH]ccc5c4)c3)CC2)=C(c2ccc(Cl)cc2)C1 [Venetoclax] + Cc1cc(Nc2cc(N3CCN(C)CC3)nc(Sc3ccc(NC(=O)C4CC4)cc3)n2)n[nH]1 [Tozasertib] (partner 0.1 µM)
Method in brief: as §1

Cell Line	relative viability (Venetoclax + Bortezomib; first compound 0.01 µM)	relative viability (Venetoclax + Bortezomib; first compound 0.03162 µM)	relative viability (Venetoclax + Bortezomib; first compound 0.1 µM)	relative viability (Venetoclax + Bortezomib; first compound 0.3162 µM)	relative viability (Venetoclax + Bortezomib; first compound 1 µM)	relative viability (Venetoclax + Olaparib; first compound 0.01 µM)	relative viability (Venetoclax + Olaparib; first compound 0.03162 µM)	relative viability (Venetoclax + Olaparib; first compound 0.1 µM)	relative viability (Venetoclax + Olaparib; first compound 0.3162 µM)	relative viability (Venetoclax + Olaparib; first compound 1 µM)	relative viability (Venetoclax + Lapatinib; first compound 0.01 µM)	relative viability (Venetoclax + Lapatinib; first compound 0.03162 µM)	relative viability (Venetoclax + Lapatinib; first compound 0.1 µM)	relative viability (Venetoclax + Lapatinib; first compound 0.3162 µM)	relative viability (Venetoclax + Lapatinib; first compound 1 µM)	relative viability (Venetoclax + Tozasertib; first compound 0.01 µM)	relative viability (Venetoclax + Tozasertib; first compound 0.03162 µM)	relative viability (Venetoclax + Tozasertib; first compound 0.1 µM)	relative viability (Venetoclax + Tozasertib; first compound 0.3162 µM)	relative viability (Venetoclax + Tozasertib; first compound 1 µM)
HOP-62	0.886	1.17	0.746	0.665	0.625	0.318	0.622	0.359	0.203	0.394	1.29	1.12	1.02	1.01	0.896	0.414	0.321	0.409	0.31	0.313
NCI-H2009	1.09	0.951	1.03	0.991	1.02	0.662	0.729	0.681	0.655	0.586	1.06	0.902	1.05	1.01	0.851	0.775	0.748	0.743	0.759	0.538
NCI-H1755	0.993	1.01	0.911	0.965	0.943	0.879	0.873	0.917	0.832	0.831	1.05	1.08	0.796	1.04	0.961	0.569	0.504	0.586	0.593	0.547
NCI-H520	0.657	0.708	0.431	0.628	0.494	0.388	0.315		0.327	0.387	0.86	0.979	0.76	0.903	0.732	0.413	0.406	0.434	0.443	0.403
LOU-NH91	0.487	0.477	0.558	0.473	0.456	0.821	0.88	0.965	0.919	0.856	0.757	0.843	0.737	0.778	0.75	0.652	0.697	0.576	0.684	0.604
LU99A	1.13	1.32	0.925	1.19	1.23	0.301	0.287	0.255	0.283	0.254	0.865	1	0.884	0.885	0.986	0.28	0.26	0.234	0.295	0.321
PC-14	0.765	0.939	0.843	0.839	0.789	0.256	0.297	0.245	0.302	0.226	0.367	0.328	0.291	0.361	0.323	0.646	0.601	0.576	0.553	0.531
NCI-H2126	1.05	1.12	1.09	1.14	1.11	0.85	0.936	0.838	0.915	0.913	0.738	0.731	0.734	0.769	0.73	0.822	0.791	0.867	0.86	0.759
